Data reported in ChEMBL document CHEMBL1158961, “Picrasinoside H, a new quassinoid glucoside, and related compounds from the stem wood of Picrasma ailanthoides” (1991).

Key:
Format in all cases: functional
Settings in all cases: read-out: ED50 (the source's name)
TE-671 = experiment: Cytotoxicity against human TE671 cells
A549 = experiment: Cytotoxicity against human A549 cells
HCT-8 = experiment: Cytotoxicity against human HCT8 cells
P388 = experiment: Cytotoxicity against mouse P388 cells
KB = experiment: Cytotoxicity against human KB cells
[1] = Cytotoxicity against human RPMI cells

Measured: EC50

COC1=C[C@@H](C)[C@@H]2C[C@H]3O[C@@H](O[C@@H]4O[C@H](CO)[C@@H](O)[C@H](O)[C@H]4O)C[C@H]4C(C)=C(OC)C(=O)[C@H]([C@@]2(C)C1=O)[C@@]34C [PICRASINOSIDE B]
≤ 4 µg/mL: all assays above

COC1=C[C@@H](C)C2C[C@H]3O[C@@H](O[C@@H]4O[C@H](CO)[C@@H](O)[C@H](O)[C@H]4O)C[C@H]4[C@@H](C)[C@@H]5OCO[C@H]5[C@@H]([C@@]34C)[C@@]2(C)C1=O (stereo not given in full) [PICRASINOSIDE C]
≤ 4 µg/mL: all assays above

COC1=C[C@@H](C)[C@@H]2C[C@H]3O[C@@H](O[C@@H]4O[C@H](CO)[C@@H](O)[C@H](O)[C@H]4O)C[C@H]4[C@@H](C)[C@H](OC)[C@@H](OC(C)=O)[C@H]([C@@]2(C)C1=O)[C@@]34C [PICRASINOSIDE D]
≤ 4 µg/mL: all assays above

COC1=C[C@@H](C)[C@@H]2C[C@H]3O[C@@H](O[C@@H]4O[C@H](CO)[C@@H](O)[C@H](O)[C@H]4O)C[C@H]4[C@](C)(O)[C@H](OC)[C@@H](OC(C)=O)[C@H]([C@@]2(C)C1=O)[C@@]34C [PICRASINOSIDE E]
≤ 4 µg/mL: all assays above

COC1=C[C@@H](C)[C@@H]2C[C@H]3O[C@@H](O[C@@H]4O[C@H](CO)[C@@H](O)[C@H](O)[C@H]4O)C[C@H]4[C@](C)(O)[C@H](OC)[C@@H](O)[C@H]([C@@]2(C)C1=O)[C@@]34C [PICRASINOSIDE G]
not listed: TE-671
≤ 4 µg/mL: all other assays above

COC1=C[C@@H](C)[C@@H]2C[C@H]3O[C@@H](O[C@@H]4O[C@H](CO)[C@@H](O)[C@H](O)[C@H]4O)C[C@H]4[C@](C)(OC(C)=O)[C@@H]5OCO[C@H]5[C@H]([C@@]2(C)C1=O)[C@@]34C [PICRASINOSIDE H]
≤ 4 µg/mL: all assays above
